Values after ≈ are worked out from the molar mass of the structure shown. Values joined by “and” are separate entries in the source; they are usually repeats but may differ in a detail not shown here. Identical values can stand only once.
Experiments:
[1] = tested on: Trypanosoma cruzi; experiment: DNDI: Inhibition of Chagas Disease parasite Trypanosoma cruzi (Tulahuen LacZ, Clone C4), in vitro.; assay type: functional, organism-based
[2] = DNDI: Cytotoxicity against L929 mouse fibroblasts, CYTO-SP, 24 hour; assay type: toxicity, cell-based; settings: mouse, L929 mouse fibroblasts
[3] = DNDI: Cytotoxicity against L-6 rat myoblasts from skeletal muscle cells; assay type: toxicity, cell-based, L6; settings: L-6 rat skeletal muscle myoblasts
[4] = DNDI: Cytotoxicity against L929 mouse fibroblasts, 72 hour.; assay type: toxicity, cell-based; settings: mouse, L929 mouse fibroblasts
[5] = tested on: Trypanosoma brucei; experiment: DNDI: Inhibition of Human African Trypanosomiasis, Cross 22, in vitro; assay type: functional, organism-based
[6] = tested on: Trypanosoma brucei; experiment: DNDI: Inhibition of Human African Trypanosomiasis, SBRI 427, in vitro; assay type: functional, organism-based
[7] = tested on: Trypanosoma brucei rhodesiense; experiment: DNDI: Inhibition of Human African Trypanosomiasis (HAT), STIB 900, in vitro; assay type: functional, organism-based
[8] = tested on: Leishmania donovani; experiment: DNDI: Inhibition of formation of Leishmania donovani (strain MHOM/ET/67/L82) axenic amastigotes, in vitro.; assay type: functional, organism-based
[9] = tested on: Plasmodium falciparum; experiment: DNDI: Inhibition of the malaria parasite Plasmodium falciparum, in vitro; assay type: functional, organism-based; settings: K1
[10] = tested on: Trypanosoma brucei; experiment: DNDI: Mean survival time in days (MSD) of mice after intraperitoneal injection of Human African Trypanosomiasis (HAT), EATRO 110, in vivo at 20 mg/kg/day for 4 days.; assay type: functional, Mus musculus
[11] = DNDI: Lipophilicity measured in Chromatographic hydrophobicity index (CHI) assay, pH 7.4; assay type: physicochemical; settings: buffer
[12] = DNDI: Solubility in phosphate buffered saline at pH7.4 measured by nephelometry at room temperature (NEPH-RT); assay type: physicochemical; settings: pH 7.4
[13] = mouse, microsomes, 1 µM
Description: DNDI: in vitro intrinsic clearance in mouse liver microsomes at a concentration of 1uM

[14] = in vitro; settings: mouse, liver microsomes, t (1 / 2)
Description: DNDI: half life in mouse liver microsomes at a concentration of 1uM

[15] = DNDI: in vitro intrinsic clearance in mouse liver microsomes at a concentration of 10uM; assay type: ADME, Microsome; settings: read-out: CLint in vitro
[16] = DNDI: half life in mouse liver microsomes at a concentration of 10uM; assay type: ADME, Microsome
[17] = DNDI: Solubility in phosphate buffered saline at pH7.4 measured by optical density (turbidimetry) at room temperature (OD-RT); assay type: physicochemical; settings: pH 7.4
[18] = Trypanosoma brucei, SBRI 427, read-out: IC50

IC50 [1]	IC50 [5]	IC50 [6]	IC50 [7]	IC50 [8]	IC50 [9]	microsomal CLint at 10 µM [15]	half-life at 10 µM [16]	solubility kinetic [17]	SMILES	IC50 at 24 h [2]	IC50 [3]	IC50 at 72 h [4]	IC50 [6, 18]	MSD [10]	chromatographic logD [11]	solubility kinetic [12]	CLint in vitro [13]	half-life at 1 µM [14]
8.2 µg/mL (≈ 23.3 µM)	2.01 µg/mL (≈ 5.72 µM)	1.34 µg/mL and 1.55 µg/mL	0.532 µg/mL (≈ 1.51 µM)	20.4 µg/mL (≈ 58 µM)	2.41 µg/mL (≈ 6.86 µM)	–	–	–	CCCCCC(C)NCc1coc(-c2ccc(Br)cc2)n1 (stereo unspecified)	> 50 µg/mL	12.7 µg/mL (≈ 36.1 µM)	4.47 µg/mL (≈ 12.7 µM)	0.9 µg/mL (≈ 2.56 µM)	–	–	–	–	–
22.2 µg/mL (≈ 65 µM)	–	–	0.487 µg/mL (≈ 1.43 µM)	16 µg/mL (≈ 46.9 µM)	4.3 µg/mL (≈ 12.6 µM)	–	–	–	CCCCCC(C)NCc1coc(-c2ccc(Cl)c(Cl)c2)n1 (stereo unspecified)	17 µg/mL (≈ 49.8 µM)	13.3 µg/mL (≈ 39 µM)	4.75 µg/mL (≈ 13.9 µM)	3.68 µg/mL (≈ 10.8 µM)	–	–	–	–	–
> 30 µg/mL	–	–	> 90 µg/mL	> 90 µg/mL	> 5 µg/mL	–	–	–	O/N=C1/CCCCCN1	> 50 µg/mL	> 90 µg/mL	> 10 µg/mL	> 5 µg/mL	–	–	–	–	–
–	–	–	–	–	–	–	–	–	CCCCCC(C)NCc1coc(-c2ccc(OC(C)CC)cc2)n1 (stereo unspecified)	–	–	1.55 µg/mL (≈ 4.5 µM)	0.68 µg/mL (≈ 1.97 µM)	4 days	> 5.2	3 µM (≈ 1.03 µg/mL)	3 µL/min/mg	257 min
–	–	–	–	–	–	–	–	–	Cc1ccc(CNC(CCc2ccccc2)c2nc(-c3ccccc3)c(N3CCCCC3)o2)cc1 (stereo unspecified)	–	–	> 10 µg/mL	> 5 µg/mL	4 days	–	–	–	–
–	–	–	–	–	–	–	–	–	CCCCCC(C)NCc1coc(-c2ccc(OC3CCCC3)cc2)n1 (stereo unspecified)	–	–	1.38 µg/mL (≈ 3.87 µM)	0.73 µg/mL (≈ 2.05 µM)	4 days	> 5.2	6 µM (≈ 2.14 µg/mL)	13 µL/min/mg	67 min
–	–	–	–	–	–	–	–	–	CCCCCC(C)NCc1coc(-c2ccc(OCC(C)C)cc2)n1 (stereo unspecified)	–	–	1.48 µg/mL (≈ 4.3 µM)	0.5 µg/mL (≈ 1.45 µM)	4 days	> 5.2	3 µM (≈ 1.03 µg/mL)	9 µL/min/mg	94 min
–	–	–	–	–	–	–	–	–	O/N=C(\Nc1cccc(F)c1)c1cccnc1Oc1c(F)cccc1F	–	–	> 10 µg/mL	> 5 µg/mL	4 days	–	–	–	–
–	–	–	–	–	–	97 µL/min/mg	30 min	6.3 µM (≈ 1.99 µg/mL)	CCCCCC(C)NCc1coc(-c2cccc(OCC)c2)n1 (stereo unspecified)	17 µg/mL (≈ 53.7 µM)	–	6.82 µg/mL (≈ 21.6 µM)	2.13 µg/mL (≈ 6.73 µM)	–	4.83	–	–	–
–	–	–	–	–	–	–	–	–	Cc1ccc(CNC(CC(C)C)c2nc(Cc3ccccc3)c(N3CCOCC3)o2)cc1 (stereo unspecified)	–	–	> 10 µg/mL	1.64 µg/mL (≈ 3.78 µM)	4 days	–	–	155 µL/min/mg	5 min
5.38 µg/mL (≈ 17 µM)	–	–	20.9 µg/mL (≈ 66.1 µM)	4.96 µg/mL (≈ 15.7 µM)	4.43 µg/mL (≈ 14 µM)	–	–	–	CCc1cccc(N/C(=N/O)c2ccccc2-c2ccccc2)c1	25.3 µg/mL (≈ 80 µM)	9.67 µg/mL (≈ 30.6 µM)	2.4 µg/mL (≈ 7.59 µM)	1.23 µg/mL (≈ 3.89 µM)	–	–	–	–	–
–	–	–	–	–	–	–	–	–	CCc1ccc(Oc2ncccc2/C(=N\O)NC2CCCCC2)cc1	–	–	> 10 µg/mL	0.09 µg/mL (≈ 0.265 µM)	4 days	–	–	–	–
–	–	–	–	–	–	–	–	–	Cc1ccc(/C(=N/O)NC2CCCCC2)c(Oc2ccc(C(C)(C)C)cc2)n1	–	–	4.06 µg/mL (≈ 10.6 µM)	> 5 µg/mL	4.5 days	–	–	98.83 µL/min/mg	8.61 min
–	–	–	–	–	–	–	–	–	CCc1ccc(N/C(=N/O)c2ccc(OC)cc2)cc1	> 50 µg/mL	–	–	3.69 µg/mL (≈ 13.6 µM)	4.5 days	–	–	–	–
–	–	–	–	–	–	–	–	–	CC(C)(C)c1ccc(Oc2ncccc2/C(=N/O)Nc2cccc(F)c2)cc1	–	–	3.39 µg/mL (≈ 8.93 µM)	> 5 µg/mL	4 days	–	–	35.83 µL/min/mg	23.7 min
–	–	–	–	–	–	–	–	–	CCc1ccc(Oc2ncccc2/C(=N\O)NC2CCCCC2O)cc1 (stereo unspecified)	–	–	> 10 µg/mL	> 5 µg/mL	4 days	–	–	51 µL/min/mg	17 min
–	–	–	–	–	–	–	–	–	CCc1ccc(Oc2ncccc2/C(=N\O)NC2CCCC[C@@H]2N)cc1 (stereo partly specified)	–	–	> 10 µg/mL	> 5 µg/mL	4 days	–	–	7 µL/min/mg	116 min
7.73 µg/mL (≈ 27.4 µM)	–	–	8.99 µg/mL (≈ 31.8 µM)	13.3 µg/mL (≈ 47 µM)	2.18 µg/mL (≈ 7.72 µM)	–	–	–	CCC(CC)N/C(=N\O)c1ccccc1-c1ccccc1	> 50 µg/mL	17.2 µg/mL (≈ 60.9 µM)	> 10 µg/mL	1.19 µg/mL (≈ 4.21 µM)	–	–	–	–	–
3.63 µg/mL (≈ 11.8 µM)	–	–	18.7 µg/mL (≈ 60.6 µM)	4.75 µg/mL (≈ 15.4 µM)	2.7 µg/mL (≈ 8.75 µM)	–	–	–	O/N=C(\NCC1CCCCC1)c1ccccc1-c1ccccc1	16.1 µg/mL (≈ 52.1 µM)	14.8 µg/mL (≈ 47.9 µM)	2.72 µg/mL (≈ 8.82 µM)	2.15 µg/mL (≈ 6.97 µM)	–	–	–	–	–
–	–	–	–	–	–	–	–	–	COc1ccc(CNC(CCc2ccccc2)c2nc(Cc3ccccc3)c(N3CCCCC3)o2)cc1OC (stereo unspecified)	–	–	> 10 µg/mL	2.54 µg/mL (≈ 4.83 µM)	4 days	> 5.2	3 µM (≈ 1.58 µg/mL)	354 µL/min/mg	2 min
> 30 µg/mL	–	–	25.9 µg/mL (≈ 115 µM)	13.6 µg/mL (≈ 60.8 µM)	> 5 µg/mL	–	–	–	O/N=C(\NC1CCCCC1)c1ccsc1	> 50 µg/mL	> 83.5 µg/mL	> 10 µg/mL	> 5 µg/mL	–	–	–	–	–
15.7 µg/mL (≈ 54.8 µM)	–	–	0.582 µg/mL (≈ 2.03 µM)	13.6 µg/mL (≈ 47.6 µM)	1.83 µg/mL (≈ 6.39 µM)	31 µL/min/mg	94 min	12.5 µM (≈ 3.58 µg/mL)	CCCCCC(C)NCc1coc(-c2ccc(C)cc2)n1 (stereo unspecified)	17 µg/mL (≈ 59.4 µM)	12.6 µg/mL (≈ 43.9 µM)	5.76 µg/mL (≈ 20.1 µM)	1.95 µg/mL (≈ 6.81 µM)	–	4.66	–	–	–
–	–	–	–	–	–	28 µL/min/mg	103 min	12.5 µM (≈ 3.84 µg/mL)	CCCCCC(C)NCc1coc(-c2cccc(Cl)c2)n1 (stereo unspecified)	14 µg/mL (≈ 45.6 µM)	–	7.27 µg/mL (≈ 23.7 µM)	2.08 µg/mL (≈ 6.78 µM)	–	5.02	–	–	–
4.72 µg/mL (≈ 13.1 µM)	–	–	20.9 µg/mL (≈ 58.1 µM)	6.18 µg/mL (≈ 17.2 µM)	4.4 µg/mL (≈ 12.2 µM)	–	–	–	CC1CCC(N/C(=N\O)c2cccnc2Oc2ccccc2Cl)CC1 (stereo unspecified)	> 50 µg/mL	50.2 µg/mL (≈ 139 µM)	> 10 µg/mL	–	–	–	–	–	–
2.8 µg/mL (≈ 8.52 µM)	0.49 µg/mL (≈ 1.49 µM)	0.86 µg/mL and 0.42 µg/mL	0.302 µg/mL (≈ 0.919 µM)	6.61 µg/mL (≈ 20.1 µM)	0.694 µg/mL (≈ 2.11 µM)	–	–	–	CCCCCC(C)NCc1coc(-c2ccc(C(C)(C)C)cc2)n1 (stereo unspecified)	9 µg/mL (≈ 27.4 µM)	3.25 µg/mL (≈ 9.89 µM)	1.36 µg/mL (≈ 4.14 µM)	–	–	–	–	17 µL/min/mg	51 min
14.6 µg/mL (≈ 53.6 µM)	–	–	0.823 µg/mL (≈ 3.02 µM)	29.5 µg/mL (≈ 108 µM)	1.21 µg/mL (≈ 4.44 µM)	–	–	–	CCCCCC(C)NCc1coc(-c2ccccc2)n1 (stereo unspecified)	32 µg/mL (≈ 117 µM)	14.3 µg/mL (≈ 52.4 µM)	> 10 µg/mL	4.72 µg/mL (≈ 17.3 µM)	–	–	–	–	–

SMILES	IC50 [1]	IC50 [5]	IC50 [6]	IC50 [7]	IC50 [8]	IC50 [9]	microsomal CLint at 10 µM [15]	half-life at 10 µM [16]	solubility kinetic [17]	IC50 at 24 h [2]	IC50 [3]	IC50 at 72 h [4]	IC50 [6, 18]	MSD [10]	chromatographic logD [11]	solubility kinetic [12]	CLint in vitro [13]	half-life at 1 µM [14]
CCc1cccc(N/C(=N/O)c2ccc(OC)cc2)c1	17 µg/mL (≈ 62.9 µM)	–	–	34.3 µg/mL (≈ 127 µM)	26.6 µg/mL (≈ 98.3 µM)	3.87 µg/mL (≈ 14.3 µM)	–	–	–	> 50 µg/mL	44.7 µg/mL (≈ 165 µM)	> 10 µg/mL	0.76 µg/mL (≈ 2.81 µM)	4 days	3.76	> 200 µM	470 µL/min/mg	2 min
CCc1ccc(/C(=N/O)NC2CCCCC2)cc1	10.8 µg/mL (≈ 43.7 µM)	–	–	8.75 µg/mL (≈ 35.5 µM)	11.3 µg/mL (≈ 45.9 µM)	> 5 µg/mL	–	–	–	> 50 µg/mL	53.8 µg/mL (≈ 218 µM)	> 10 µg/mL	0.98 µg/mL (≈ 3.98 µM)	4 days	4.6	50 µM (≈ 12.3 µg/mL)	210 µL/min/mg	4 min

— ChEMBL document CHEMBL1857833, “Screening and optimization of specific chemical series against human African Trypanosomiasis (HAT)”
